Patent publication EP0857177B1, “PROCESS FOR THE PREPARATION OF A SINGLE CHAIN FV ANTIBODY FRAGMENT” (Novartis AG, priority 1995, dated 1997)

System: anti-phOx-scFv (αphOx15-scFv with c-myc tag), purified monomeric, expressed in Sf9 insect cells
Assay: Surface plasmon resonance (BIAcore) measurement of the monovalent interaction between immobilised scFv and phOx
Type: binding
Settings: monomeric anti-phOx-scFv amine-coupled to CM5 sensor chip (2160 RU); phOx offered as analyte phOx20.5BSA in HBS pH 7.4; BSA background RU subtracted; derived from differential RU at different phOx concentrations; error of 12.6% for the slope
Protocol: A second independent assay is employed to confirm the low affinity of the monovalent interaction between anti-phOx-scFv and phOx. Surface plasmon resonance signals (Kretschmann, E. and Raether, H. (1968) Z. Naturforsch. 23a, 2135-2136; Liedberg, et al., (1983) Sensors and Actuators 4, 299-304) are recorded with a BlAcore machine (Pharmacia Biosensor AB; Jönsson, et al., (1991) BioTechniques 11, 620-627; Chaiken, et al., (1992) Anal. Biochem. 201, 197-210). Purified monomeric anti-phOx-scFv at a concentration of 40 µg/ml in 5 mM maionic acid pH 6.0 / 0.05% [v/v] Tween-20 is coupled to a CM5 sensor chip using the Amine Coupling Kit (Pharmacia) as described earlier (Johnsson, et al., (1991) Anal. Biochem. 198, 268-277). Via amino groups, 2160 RU of the purified monomeric anti-phOx-scFv is immobilised to the sensor chip (i.e., about 2 ng/mm^2 chip surface; Stenberg, et al., (1991) J. Colloid Interface Sci. 143, 513-526).The activation time is adjusted to 7 min at a flow rate of 5 µl/min. For immobilisation 35 µl of the scFv sample are injected to the chip at the same flow rate. […]
Since a notable background binding of BSA to the modified chip is observed, it is indispensable to record the scFv binding events for both analytes phOx20.5BSA and BSA. […] KD can be derived from the differential RU measured at different phOx concentrations before dissociation is initiated.

CCO/C=C1/N=C(c2ccccc2)OC1=O [phOx]
Kd: 84.7 µM
